Where two headings read alike, the source gives them in different places.
Assays:
[1] = in vivo; cited from earlier work
[2] = tested on: patients undergoing percutaneous coronary intervention (PCI); assay: Example 1: bleeding and adverse events through 48 hours;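 also: bleeding events compared through 48 h in the safety population, meaning patients given at least one study drug dose and grouped by treatment actually received, two-tailed tests at 0.05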
Experimental: (§1) The primary efficacy endpoint was the composite of mortality, myocardial infarction, or ischemia-driven revascularization at 48 hours. The primary analysis was performed on a modified intent-to-treat population. Confirmatory analyses were performed on an intent-to-treat population. Secondary endpoints included the individual rates of mortality, myocardial infarction, new Q-wave myocardial infarction, ischemia-driven revascularization, abrupt vessel closure, or stroke at 48 hours. Mortality at 30 days and 1 year was also recorded. The clinical events committee adjudicated myocardial infarction, Q-wave myocardial infarction, ischemia-driven revascularization, stent thromboses, and stroke (ischemic or hemorrhagic). The definition of stent thrombosis was similar to the Academic Research Consortium definition of definite stent thrombosis. After review of the prespecified analyses, two exploratory endpoints less reliant on periprocedural biomarker ascertainment were examined. The exploratory endpoints, which were composed of prespecified and adjudicated endpoints, were the composite of mortality, Q-wave myocardial infarction, or ischemia-driven revascularization and the composite of mortality, Q-wave myocardial infarction, or stent thrombosis. Bleeding and adverse events through 48 hours were compared.
(§2) All efficacy analyses were performed on the modified intent-to-treat population, defined as all randomized patients who received at least one dose of study drug and underwent the index PCI. All safety-related analyses were performed on the safety population, which included all patients who received at least one dose of assigned study drug. Patients in the safety analyses were assigned to a treatment arm based on treatment actually received, not as randomized. Intent-to-treat analyses are also presented for full disclosure of results. All statistical tests were two-tailed using a level of significance of 0.05. […] Logistic regression was also used to analyze the majority of the remaining secondary endpoints.

[3] = tested on: patients undergoing percutaneous coronary intervention (PCI); details: human, in vivo, 48 h;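 also: bleeding events compared through 48 h in the safety population, meaning patients given at least one study drug dose and grouped by treatment actually received, two-tailed tests at 0.05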
Experimental: as §1, §2

platelet function = details: in vivo; cited from earlier work
[4] = tested on: patients with atherosclerosis undergoing PCI
Experimental: The protocol called for aspirin (75 to 325 mg) to be administered to all patients. […] The choice of a periprocedural anticoagulant (bivalirudin, unfractionated heparin, low-molecular-weight heparin, or fondaparinux) was also at the discretion of the investigator. Glycoprotein IIb/IIIa inhibitors were allowed only as rescue therapy during PCI to treat new or persistent thrombus formation, slow or no reflow, side-branch compromise, dissection, or distal embolization. The investigator at the site determined the protocol for management of the arterial sheath.
The inclusion criteria for the trial were men or nonpregnant women, 18 years of age or older with coronary atherosclerosis who required PCI for stable angina, a non-ST-segment elevation acute coronary syndrome, or ST-segment elevation myocardial infarction (STEMI). Patients were required to provide written informed consent.
Major exclusion criteria were receipt of a P2Y12 inhibitor or abciximab at any time in the 7 days before randomization and receipt of eptifibatide or tirofiban or fibrinolytic therapy in the 12 hours before randomization.
The primary efficacy end point was the composite rate of death from any cause, myocardial infarction, IDR, or stent thrombosis in the 48 hours after randomization in the modified intention-to-treat population (which comprised patients who actually underwent PCI and received the study drug). […] The key secondary end point was the incidence of stent thrombosis at 48 hours. This end point included definite stent thrombosis, defined according to the criteria of the Academic Research Consortium, or intraprocedural stent thrombosis, which was assessed, with group assignments concealed, at an angiographic core laboratory (Cardiovascular Research Foundation). Intraprocedural stent thrombosis was defined as any new or worsened thrombus related to the stent procedure that was confirmed angiographically. Events of death, myocardial infarction, IDR, and stent thrombosis that occurred during the first 30 days after randomization were adjudicated by the clinical events committee at the Duke Clinical Research Institute. The study adhered to the universal definition of myocardial infarction for myocardial infarction unrelated to PCI but expanded on the definition of PCI-related myocardial infarction.
The numbers and percentages of patients within each analysis population (modified intention-to-treat, intention-to-treat, and safety) were summarized according to treatment group. The primary efficacy analysis of the rate of the composite end point of death from any cause, myocardial infarction, IDR, or stent thrombosis (with all events adjudicated by the clinical events committee) in the 48 hours after randomization was conducted in the modified intention-to-treat population. The primary safety analysis was conducted in the safety population, which comprised all patients who underwent randomization and received at least one dose of the study drug; patients were classified according to the actual treatment received. All calculations and statistical analyses were performed with the use of SAS software, version 9.2.

[5] = 48-hour, safety population, cangrelor vs placebo
[6] = 48 hours, ITT, Cangrelor vs Clopidogrel
[7] = 48 hours, ITT, rate in parentheses
[8] = 48 hours, modified intention-to-treat
[9] = 48 hours, modified intention-to-treat, Cangrelor vs Clopidogrel
[10] = 30 days, cangrelor vs clopidogrel
[11] = 30 days, modified intention-to-treat population
[12] = 30 days, modified intention-to-treat, Cangrelor vs Clopidogrel

## CSCCNc1nc(SCCC(F)(F)F)nc2c1ncn2[C@@H]1O[C@H](COP(=O)(O)OP(=O)(O)C(Cl)(Cl)P(=O)(O)O)[C@@H](O)[C@H]1O [Cangrelor, cangrelor]
[1]
  plasma half-life: 3 to 5 min
[2]; 48-hour, safety population
  Thrombocytopenia: 2 (0.1) no. (%)
[2]; [5]
  Odds Ratio (95% CI): ACUITY criteria Major bleeding: 1.607 (1.232, 2.096)
  Odds Ratio (95% CI): ACUITY criteria Minor bleeding: 1.335 (1.120, 1.592)
  Odds Ratio (95% CI): Access site bleeding requiring radiologic or surgical intervention: 0.796 (0.314, 2.019)
  Odds Ratio (95% CI): GUSTO criteria Moderate bleeding: 1.536 (0.762, 3.093)
  Odds Ratio (95% CI): GUSTO criteria Severe/life-threatening bleeding: 1.495 (0.531, 4.205)
  Odds Ratio (95% CI): Hematoma <5 cm at puncture site: 1.270 (0.992, 1.626)
  Odds Ratio (95% CI): Hematoma ≧5 cm at puncture site: 1.640 (1.214, 2.216)
  Odds Ratio (95% CI): Hemodynamic compromise: 1.395 (0.442, 4.400)
  Odds Ratio (95% CI): Intracranial hemorrhage: 1.992 (0.180, 21.978)
  Odds Ratio (95% CI): Oozing at puncture site: 1.385 (1.052, 1.825)
[2]; 48 hours
  rates of red blood cell transfusion: 0.9%
[2]; human, in vivo, 48 h
  incidence of dyspnea: 1.4%
  rate of arrhythmia: 2.3%
[3]
  ACUITY criteria Major bleeding: 147 (5.5) no. (%)
  ACUITY criteria Minor bleeding: 320 (12.0) no. (%)
  Access site bleeding requiring radiologic or surgical intervention: 8 (0.3) no. (%)
  Any blood transfusion: 26 (1.0) no. (%)
  Any platelet transfusion: 4 (0.2) no. (%)
  Any red blood cell transfusion: 25 (0.9) no. (%)
  Drop in hemoglobin and/or hematocrit: 33 (1.2) no. (%)
  Ecchymosis: 95 (3.6) no. (%)
  Epistaxis: 6 (0.2) no. (%)
  GUSTO criteria Mild bleeding: 427 (16.0) no. (%)
  GUSTO criteria Moderate bleeding: 20 (0.8) no. (%)
  GUSTO criteria Severe/life-threatening bleeding: 9 (0.3) no. (%)
  Hematoma <5 cm at puncture site: 150 (5.6) no. (%)
  Hematoma ≧5 cm at puncture site: 115 (4.3) no. (%)
  Hemodynamic compromise: 7 (0.3) no. (%)
  Intracranial hemorrhage: 2 (0.1) no. (%)
  Intraocular: 0 (0.0) no. (%)
  Odds Ratio (95% CI): Any blood transfusion: 1.624 (0.869, 3.034)
  Odds Ratio (95% CI): Any platelet transfusion: 1.992 (0.365, 10.887)
  Odds Ratio (95% CI): Any red blood cell transfusion: 1.665 (0.876, 3.166)
  Odds Ratio (95% CI): Drop in hemoglobin and/or hematocrit: 0.938 (0.581, 1.514)
  Odds Ratio (95% CI): Ecchymosis: 1.684 (1.207, 2.349)
  Odds Ratio (95% CI): Epistaxis: 0.497 (0.186, 1.325)
  Odds Ratio (95% CI): GUSTO criteria Mild bleeding: 1.442 (1.232, 1.688)
  Odds Ratio (95% CI): Reoperation for bleeding: 0.995 (0.062, 15.924)
  Odds Ratio (95% CI): Retroperitoneal: 1.992 (0.180, 21.978)
  Odds Ratio (95% CI): TIMI criteria Major bleeding: 0.442 (0.136, 1.436)
  Odds Ratio (95% CI): TIMI criteria Minor bleeding: 1.372 (0.719, 2.618)
  Odds Ratio (95% CI): Thrombocytopenia: 0.663 (0.111, 3.973)
  Oozing at puncture site: 125 (4.7) no. (%)
  Reoperation for bleeding: 1 (0.0) no. (%)
  Retroperitoneal: 2 (0.1) no. (%)
  TIMI criteria Major bleeding: 4 (0.2) no. (%)
  TIMI criteria Minor bleeding: 22 (0.8) no. (%)
Platelet function
  platelet function returns to normal after drug termination: 30 to 60 min
[4]; 300-mg loading dose of clopidogrel
  odds ratio, primary end point: 0.84
[4]; 600-mg loading dose of clopidogrel
  odds ratio, primary end point: 0.77
[4]; 48 hours
  number needed to treat to prevent one primary end-point event: 84
  rate of stent thrombosis (key secondary efficacy end point): 0.8%
[4]; [6]
  Death OR: 0.95
  Death/MI OR: 0.80
  Death/MI/IDR OR: 0.80
  Death/MI/IDR/ST OR: 0.79
  Death/MI/IDR/ST/GUSTO Severe Bleeding (NACE) OR: 0.80
  Death/MI/ST OR: 0.79
  Death/Q-wave MI/IDR OR: 0.77
  Death/ST OR: 0.67
  IDR OR: 0.76
  MI OR: 0.80
  Q-wave MI OR: 0.61
  Stent thrombosis OR: 0.62
[4]; 48 hours, ITT, n/N
  Death: 20/5573
  Death/MI: 222/5573
  Death/MI/IDR: 233/5573
  Death/MI/IDR/ST: 260/5573
  Death/MI/IDR/ST/GUSTO Severe Bleeding (Net Adverse Clinical Events, NACE): 267/5573
  Death/MI/ST: 251/5573
  Death/Q-wave MI/IDR: 52/5573
  Death/ST: 61/5573
  IDR: 29/5573
  MI: 207/5573
  Q-wave MI: 11/5573
  Stent thrombosis: 46/5573
[4]; [7]
  Death: (0.4)
  Death/MI: (4.0)
  Death/MI/IDR: (4.2)
  Death/MI/IDR/ST: (4.7)
  Death/MI/IDR/ST/GUSTO Severe Bleeding (Net Adverse Clinical Events, NACE): (4.8)
  Death/MI/ST: (4.5)
  Death/Q-wave MI/IDR: (0.9)
  Death/ST: (1.1)
  IDR: (0.5)
  MI: (3.7)
  Q-wave MI: (0.2)
  Stent thrombosis: (0.8)
[4]; 48 hours, cangrelor vs clopidogrel
  odds ratio, stent thrombosis: 0.62
[4]; 48 hours, crude analysis, cangrelor vs clopidogrel
  odds ratio, primary composite efficacy end point: 0.79
[4]; 48 hours, logistic regression adjusted for baseline status and clopidogrel loading dose, cangrelor vs clopidogrel
  odds ratio, primary composite efficacy end point: 0.78
[4]; [8]
  rate of primary composite efficacy end point (death from any cause, myocardial infarction, IDR, or stent thrombosis): 4.7%
[4]; [9]
  Death from any cause, Odds Ratio (95% CI): 1.00 (0.52-1.92)
  Death from cardiovascular causes, Odds Ratio (95% CI): 1.00 (0.52-1.92)
  Death or stent thrombosis, Odds Ratio (95% CI): 0.67 (0.48-0.94)
  Death, Q-wave myocardial infarction, or ischemia-driven revascularization, Odds Ratio (95% CI): 0.76 (0.53-1.11)
  Death/MI OR (95% CI): 0.80 (0.67, 0.96)
  Death/MI/Definite ST OR (95% CI): 0.80 (0.66, 0.95)
  Death/MI/IDR OR (95% CI): 0.80 (0.67, 0.95)
  Death/MI/IDR/Definite ST OR (95% CI): 0.80 (0.67, 0.95)
  Death/MI/ST OR (95% CI): 0.79 (0.66, 0.94)
  Definite ST OR (95% CI): 0.54 (0.27, 1.10)
  Ischemia-driven revascularization, Odds Ratio (95% CI): 0.74 (0.45-1.20)
  Key secondary end point: stent thrombosis, Odds Ratio (95% CI): 0.62 (0.43-0.90)
  Myocardial infarction, Odds Ratio (95% CI): 0.80 (0.67-0.97)
  Net adverse clinical events, Odds Ratio (95% CI): 0.80 (0.68-0.94)
  Q-wave myocardial infarction, Odds Ratio (95% CI): 0.61 (0.29-1.29)
[4]; 48 hours, modified intention-to-treat, Cangrelor vs Clopidogrel, logistic regression adjusted for baseline status and clopidogrel loading dose
  Primary end point: death from any cause, myocardial infarction, ischemia-driven revascularization, or stent thrombosis, Odds Ratio (95% CI): 0.78 (0.66-0.93)
[4]; 48 hours, post hoc
  net rate of adverse clinical events (primary efficacy plus primary safety end point): 4.8%
[4]; 48 hours, post hoc, cangrelor vs clopidogrel
  odds ratio, net adverse clinical events: 0.80
[4]; 30 days
  Stent thrombosis: 1.3%
  rate of the composite efficacy end point: 6.0%
[4]; [10]
  odds ratio, composite efficacy end point: 0.85
  odds ratio, stent thrombosis: 0.68
[4]; [11]
  Death from any cause: (1.1) percent
  Death from any cause, myocardial infarction, ischemia-driven revascularization, or stent thrombosis: (6.0) percent
  Death from cardiovascular causes: (0.9) percent
[4]; [12]
  Death from any cause, Odds Ratio: 1.09
  Death from cardiovascular causes, Odds Ratio: 1.04
  Ischemia-driven revascularization, Odds Ratio: 0.85
  Myocardial infarction, Odds Ratio: 0.82
  Q-wave myocardial infarction, Odds Ratio: 0.63
  Stent thrombosis, Odds Ratio: 0.68
[4]; 30 days, modified intention-to-treat, Cangrelor vs Clopidogrel, adjusted logistic regression
  Death from any cause, myocardial infarction, ischemia-driven revascularization, or stent thrombosis, Odds Ratio: 0.85
[4]; cangrelor vs clopidogrel
  odds ratio, intraprocedural stent thrombosis: 0.65
  odds ratio, procedural complications: 0.74
  odds ratio, rescue therapy with a glycoprotein IIb/IIIa inhibitor: 0.65
[4]; in vivo
  odds of an ischemic event lower than with clopidogrel: 22%
  odds of stent thrombosis lower than with clopidogrel: 38%
  rate of intraprocedural stent thrombosis: 0.6%
  rate of procedural complications: 3.4%
  use of rescue therapy with a glycoprotein IIb/IIIa inhibitor: 2.3%
[4]; infusion for 129 minutes or less
  odds ratio, primary end point: 0.85
[4]; infusion for more than 129 minutes
  odds ratio, primary end point: 0.72
[4]; patients who received the loading dose during or after PCI
  odds ratio, primary end point: 0.79
[4]; patients who received the loading dose immediately before PCI
  odds ratio, primary end point: 0.80

## COC(=O)[C@H](c1ccccc1Cl)N1CCc2sccc2C1 [Clopidogrel, clopidogrel, reference compound]
[4]; 48 hours
  rate of stent thrombosis (key secondary efficacy end point): 1.4%
[4]; 48 hours, ITT, n/N
  Death: 21/5561
  Death/MI: 275/5561
  Death/MI/IDR: 289/5561
  Death/MI/IDR/ST: 325/5561
  Death/MI/IDR/ST/GUSTO Severe Bleeding (Net Adverse Clinical Events, NACE): 330/5561
  Death/MI/ST: 315/5561
  Death/Q-wave MI/IDR: 67/5561
  Death/ST: 90/5561
  IDR: 38/5561
  MI: 255/5561
  Q-wave MI: 18/5561
  Stent thrombosis: 74/5561
[4]; [7]
  Death: (0.4)
  Death/MI: (5.0)
  Death/MI/IDR: (5.2)
  Death/MI/IDR/ST: (5.8)
  Death/MI/IDR/ST/GUSTO Severe Bleeding (Net Adverse Clinical Events, NACE): (5.9)
  Death/MI/ST: (5.7)
  Death/Q-wave MI/IDR: (1.2)
  Death/ST: (1.6)
  IDR: (0.7)
  MI: (4.6)
  Q-wave MI: (0.3)
  Stent thrombosis: (1.3)
[4]; [8]
  rate of primary composite efficacy end point (death from any cause, myocardial infarction, IDR, or stent thrombosis): 5.9%
[4]; 48 hours, post hoc
  net rate of adverse clinical events (primary efficacy plus primary safety end point): 6.0%
[4]; 30 days
  Stent thrombosis: 1.9%
  rate of the composite efficacy end point: 7.0%
[4]; in vivo
  rate of intraprocedural stent thrombosis: 1.0%
  rate of procedural complications: 4.5%
  use of rescue therapy with a glycoprotein IIb/IIIa inhibitor: 3.5%

— US8680052B1, “Methods of treating, reducing the incidence of, and/or preventing ischemic events” (The Medicines Company, priority 2013, dated 2014)
